The numbers were not newly measured in US4952402A, “Controlled release powder and process for its preparation” (priority 1984, dated 1990), which cites them from elsewhere.

Each structure is given as a SMILES string.

As to `Cn1c(=O)c2[nH]cnc2n(C)c1=O` [theophylline], the apparent biological half-life (in vivo) was 4-9 hours. Also, the time of peak (rapid or immediate release) was 2 h.
